Results on three molecules are retold here after ChEMBL document CHEMBL5634083, “Targeting polyketide synthase 13 for the treatment of tuberculosis” (Eur J Med Chem, 2023).

Structures are written as SMILES. Converted amounts (≈) assume the structure as drawn.

What all share (type): functional
Assay [1] has as its system Mycobacterium tuberculosis. As to the kind of experiment: Antibacterial activity against fluoroquinolone-resistant Mycobacterium tuberculosis H37Rv assessed as reduction in bacterial growth measured after 16 to 18 hrs by serial dilution method. Conditions: time 16-18 hrs.
Assay [2] relates to Mycobacterium tuberculosis. As to the kind of experiment: Antitubercular activity against multi-drug resistant Mycobacterium tuberculosis assessed as reduction in microbial growth measured after 3 weeks by resazurin microplate reader assay. Conditions: 504 h. On the technique in general: Alamar Blue is a resazurin reagent that responds to reducing activity.
Assay [3] deals with Mycobacterium tuberculosis. The assay can be described thus: Antimycobacterial activity against multi-drug resistant Mycobacterium tuberculosis.

Turning to `CC(=O)c1c(C)n(-c2ccc(N(C)C)cc2)c2ccc(O)c(CN3CCCC3)c12`, the MIC90 – broadly, an inhibitory concentration at the 90% level, which refers to growth in some studies and to a panel of isolates in others – in assay [1] was found to be 0.244 µM (≈ 0.0955 µg/mL).

As to `O=C(c1ccccc1)c1cc(Cl)ccc1OCc1nc(-c2ccc(C(F)(F)F)cc2)no1`, the MIC (usually the least concentration at which growth counts as inhibited) in assay [2] worked out at 16 µg/mL.

The molecule `CCOC(=O)c1c(NC(=O)c2c(F)c(F)c(F)c(F)c2F)sc2c1CCN(CC)C2` returned an MIC in assay [3] of 0.2 µM (≈ 0.0897 µg/mL).
